Results reported in the NIST ThermoML archive (doi:10.1021/je200811n).

Details: Hot wire method

C=C(F)C(F)(F)F [2,3,3,3-tetrafluoro-1-propene]
Details	thermal conductivity [W/m/K]
332.05 K, 300 kPa, Gas	0.01662
332.05 K, 1511 kPa, Gas	0.01807
332.06 K, 821 kPa, Gas	0.01681
332.12 K, 1388 kPa, Gas	0.01774
332.13 K, 627 kPa, Gas	0.01673
332.19 K, 1235 kPa, Gas	0.01737
332.21 K, 465 kPa, Gas	0.01667
332.27 K, 1074 kPa, Gas	0.01714
332.3 K, 974 kPa, Gas	0.01699
332.31 K, 299 kPa, Gas	0.01673
332.33 K, 1511 kPa, Gas	0.01806
332.36 K, 820 kPa, Gas	0.01686
332.38 K, 202 kPa, Gas	0.0168
332.41 K, 1386 kPa, Gas	0.01772
332.46 K, 626 kPa, Gas	0.01677
332.48 K, 1233 kPa, Gas	0.01739
332.55 K, 102 kPa, Gas	0.01703
332.56 K, 463 kPa, Gas	0.01674
332.58 K, 1073 kPa, Gas	0.01716
332.62 K, 973 kPa, Gas	0.01704
332.62 K, 1511 kPa, Gas	0.01806
332.67 K, 299 kPa, Gas	0.01675
332.69 K, 819 kPa, Gas	0.0169
332.71 K, 1385 kPa, Gas	0.0177
332.75 K, 202 kPa, Gas	0.01687
332.81 K, 626 kPa, Gas	0.01677
332.81 K, 1233 kPa, Gas	0.01741
332.91 K, 1072 kPa, Gas	0.01718
332.91 K, 1511 kPa, Gas	0.01803
332.92 K, 461 kPa, Gas	0.01677
332.95 K, 101 kPa, Gas	0.01705
332.96 K, 972 kPa, Gas	0.01706
333.04 K, 299 kPa, Gas	0.01681
333.04 K, 1384 kPa, Gas	0.0177
333.05 K, 818 kPa, Gas	0.01692
333.14 K, 1232 kPa, Gas	0.01741
333.15 K, 202 kPa, Gas	0.01686
333.18 K, 625 kPa, Gas	0.01682
333.26 K, 1071 kPa, Gas	0.0172
333.3 K, 460 kPa, Gas	0.01681
333.31 K, 972 kPa, Gas	0.01708
333.38 K, 101 kPa, Gas	0.01705
333.41 K, 817 kPa, Gas	0.01696
333.45 K, 300 kPa, Gas	0.01686
333.56 K, 624 kPa, Gas	0.01687
333.57 K, 202 kPa, Gas	0.01692
333.69 K, 460 kPa, Gas	0.01685
333.83 K, 102 kPa, Gas	0.0171
333.87 K, 300 kPa, Gas	0.01688
334.02 K, 202 kPa, Gas	0.01695
334.31 K, 102 kPa, Gas	0.01716
341.28 K, 102 kPa, Gas	0.01759
341.35 K, 201 kPa, Gas	0.01779
341.39 K, 303 kPa, Gas	0.01795
341.45 K, 17165 kPa, Liquid	0.0645
341.49 K, 102 kPa, Gas	0.01745
341.52 K, 12122 kPa, Liquid	0.06134
341.52 K, 21726 kPa, Liquid	0.06742
341.55 K, 17165 kPa, Liquid	0.06461
341.56 K, 200 kPa, Gas	0.01761
341.6 K, 303 kPa, Gas	0.01775
341.6 K, 8202 kPa, Liquid	0.05839
341.61 K, 21724 kPa, Liquid	0.06756
341.62 K, 12120 kPa, Liquid	0.06114
341.69 K, 5189 kPa, Liquid	0.05547
341.7 K, 8198 kPa, Liquid	0.05823
341.73 K, 103 kPa, Gas	0.01734
341.77 K, 2101 kPa, Liquid	0.05131
341.79 K, 200 kPa, Gas	0.0175
341.8 K, 5187 kPa, Liquid	0.05524
341.8 K, 17162 kPa, Liquid	0.0647
341.82 K, 302 kPa, Gas	0.01766
341.85 K, 21720 kPa, Liquid	0.06741
341.88 K, 12117 kPa, Liquid	0.06141
341.89 K, 2100 kPa, Liquid	0.05083
341.92 K, 17160 kPa, Liquid	0.06488
341.96 K, 103 kPa, Gas	0.01726
341.96 K, 21718 kPa, Liquid	0.06759
341.98 K, 8198 kPa, Liquid	0.05827
342.01 K, 12114 kPa, Liquid	0.06141
342.02 K, 199 kPa, Gas	0.01743
342.03 K, 1842 kPa, Gas	0.01945
342.03 K, 1904 kPa, Gas	0.01996
342.04 K, 1737 kPa, Gas	0.0191
342.05 K, 302 kPa, Gas	0.01758
342.07 K, 1574 kPa, Gas	0.01854
342.08 K, 5185 kPa, Liquid	0.0553
342.11 K, 8197 kPa, Liquid	0.05815
342.16 K, 1405 kPa, Gas	0.01818
342.17 K, 951 kPa, Gas	0.01775
342.18 K, 17158 kPa, Liquid	0.06504
342.19 K, 814 kPa, Gas	0.0177
342.19 K, 2098 kPa, Liquid	0.05099
342.21 K, 103 kPa, Gas	0.01718
342.22 K, 5183 kPa, Liquid	0.05512
342.22 K, 21716 kPa, Liquid	0.0677
342.26 K, 605 kPa, Gas	0.01764
342.27 K, 199 kPa, Gas	0.01735
342.27 K, 1842 kPa, Gas	0.01963
342.27 K, 1904 kPa, Gas	0.01971
342.28 K, 12111 kPa, Liquid	0.06144
342.29 K, 302 kPa, Gas	0.0175
342.29 K, 1736 kPa, Gas	0.01924
342.29 K, 1903 kPa, Gas	0.01966
342.32 K, 459 kPa, Gas	0.01763
342.32 K, 17157 kPa, Liquid	0.06503
342.34 K, 1573 kPa, Gas	0.01875
342.34 K, 2096 kPa, Liquid	0.05065
342.36 K, 21715 kPa, Liquid	0.06785
342.4 K, 8195 kPa, Liquid	0.05822
342.43 K, 1404 kPa, Gas	0.01834
342.44 K, 12112 kPa, Liquid	0.06137
342.47 K, 949 kPa, Gas	0.01781
342.47 K, 1242 kPa, Gas	0.01809
342.5 K, 813 kPa, Gas	0.01767
342.5 K, 1096 kPa, Gas	0.01796
342.51 K, 1904 kPa, Gas	0.01989
342.52 K, 1841 kPa, Gas	0.01962
342.52 K, 1904 kPa, Gas	0.01982
342.52 K, 5181 kPa, Liquid	0.05511
342.54 K, 939 kPa, Gas	0.01779
342.55 K, 1735 kPa, Gas	0.01923
342.56 K, 303 kPa, Gas	0.01766
342.56 K, 8193 kPa, Liquid	0.05802
342.6 K, 17155 kPa, Liquid	0.06501
342.61 K, 1572 kPa, Gas	0.01878
342.63 K, 201 kPa, Gas	0.01782
342.63 K, 21712 kPa, Liquid	0.06777
342.66 K, 458 kPa, Gas	0.01768
342.66 K, 2094 kPa, Liquid	0.05079
342.69 K, 5181 kPa, Liquid	0.05482
342.72 K, 1403 kPa, Gas	0.01842
342.73 K, 12110 kPa, Liquid	0.06135
342.75 K, 102 kPa, Gas	0.01803
342.77 K, 1903 kPa, Gas	0.01985
342.77 K, 17154 kPa, Liquid	0.06488
342.78 K, 1241 kPa, Gas	0.01818
342.78 K, 1841 kPa, Gas	0.01962
342.79 K, 948 kPa, Gas	0.01785
342.79 K, 1904 kPa, Gas	0.01984
342.79 K, 21708 kPa, Liquid	0.06775
342.82 K, 1095 kPa, Gas	0.01798
342.83 K, 812 kPa, Gas	0.01775
342.83 K, 1734 kPa, Gas	0.01925
342.86 K, 939 kPa, Gas	0.01784
342.86 K, 8191 kPa, Liquid	0.05808
342.89 K, 1571 kPa, Gas	0.01877
342.9 K, 12107 kPa, Liquid	0.06122
342.91 K, 302 kPa, Gas	0.01773
343.01 K, 201 kPa, Gas	0.01784
343.01 K, 5178 kPa, Liquid	0.05499
343.02 K, 458 kPa, Gas	0.0177
343.03 K, 1402 kPa, Gas	0.01843
343.03 K, 1903 kPa, Gas	0.01984
343.05 K, 8190 kPa, Liquid	0.05781
343.05 K, 17151 kPa, Liquid	0.06493
343.06 K, 1840 kPa, Gas	0.01962
343.06 K, 1904 kPa, Gas	0.01984
343.06 K, 21708 kPa, Liquid	0.06763
343.1 K, 1240 kPa, Gas	0.01819
343.12 K, 946 kPa, Gas	0.01784
343.12 K, 1733 kPa, Gas	0.0192
343.14 K, 1094 kPa, Gas	0.01802
343.15 K, 102 kPa, Gas	0.01805
343.17 K, 2093 kPa, Liquid	0.05051
343.19 K, 810 kPa, Gas	0.0178
343.2 K, 938 kPa, Gas	0.0179
343.2 K, 12105 kPa, Liquid	0.06126
343.21 K, 1570 kPa, Gas	0.01879
343.21 K, 5176 kPa, Liquid	0.05461
343.25 K, 17149 kPa, Liquid	0.06474
343.25 K, 21706 kPa, Liquid	0.06757
343.29 K, 302 kPa, Gas	0.01776
343.29 K, 606 kPa, Gas	0.01775
343.35 K, 1401 kPa, Gas	0.01847
343.36 K, 8188 kPa, Liquid	0.05795
343.39 K, 2092 kPa, Liquid	0.05007
343.4 K, 200 kPa, Gas	0.01785
343.41 K, 459 kPa, Gas	0.01776
343.41 K, 12104 kPa, Liquid	0.06108
343.43 K, 1239 kPa, Gas	0.01822
343.48 K, 945 kPa, Gas	0.01791
343.49 K, 1093 kPa, Gas	0.01807
343.53 K, 5176 kPa, Liquid	0.05477
343.55 K, 809 kPa, Gas	0.01783
343.55 K, 937 kPa, Gas	0.01797
343.56 K, 102 kPa, Gas	0.01807
343.58 K, 8186 kPa, Liquid	0.0576
343.68 K, 606 kPa, Gas	0.0178
343.69 K, 302 kPa, Gas	0.01781
343.72 K, 2091 kPa, Liquid	0.05023
343.77 K, 5174 kPa, Liquid	0.05432
343.8 K, 200 kPa, Gas	0.0179
343.8 K, 459 kPa, Gas	0.0178
343.99 K, 2090 kPa, Liquid	0.05015
344 K, 103 kPa, Gas	0.01811
344.09 K, 302 kPa, Gas	0.01783
344.23 K, 199 kPa, Gas	0.01797
344.46 K, 103 kPa, Gas	0.01816

Liquid
Details	thermal conductivity [W/m/K]
333.15 K	0.05329
343.15 K	0.05091
